Experimental findings from patent US10167284B2, “Spirocyclic compounds as agonists of the muscarinic M1 receptor and/or M4 receptor” (HEPTARES THERAPEUTICS LIMITED, priority 2015, dated 2019) are described below.

Broadly, the Emax is the maximal effect, on the per cent scale that the assay sets.

Sequence of human muscarinic M3 receptor (P20309 whole entry): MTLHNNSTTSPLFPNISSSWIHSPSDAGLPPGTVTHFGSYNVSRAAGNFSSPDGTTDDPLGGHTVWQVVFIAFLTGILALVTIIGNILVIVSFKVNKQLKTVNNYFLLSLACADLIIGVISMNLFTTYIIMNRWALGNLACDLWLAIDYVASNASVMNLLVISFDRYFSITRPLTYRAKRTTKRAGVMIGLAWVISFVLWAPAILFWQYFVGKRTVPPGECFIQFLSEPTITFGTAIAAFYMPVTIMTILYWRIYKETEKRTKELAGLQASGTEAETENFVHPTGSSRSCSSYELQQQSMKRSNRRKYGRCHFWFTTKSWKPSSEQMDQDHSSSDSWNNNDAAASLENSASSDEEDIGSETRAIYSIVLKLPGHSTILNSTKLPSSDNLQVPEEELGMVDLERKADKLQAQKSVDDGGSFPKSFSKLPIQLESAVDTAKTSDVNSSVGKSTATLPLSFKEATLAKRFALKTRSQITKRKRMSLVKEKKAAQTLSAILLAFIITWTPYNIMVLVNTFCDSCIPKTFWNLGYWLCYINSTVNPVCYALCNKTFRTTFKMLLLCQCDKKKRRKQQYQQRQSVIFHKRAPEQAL

The first experiment concerns the target human muscarinic M3 receptor (Homo sapiens, UniProt P20309). The experiment can be described thus: Alphascreen Surefire phospho-ERK1/2 functional assay, M3.
Settings: not given
In turn, `CCC1NC(=O)CC12CCN(C1CC3(CCN(C(=O)OC)C3)C1)CC2` (single isomer, unassigned) [3-4 Isomer 3] registered an EC50 above 20000 nM.

`CCOC(=O)N1CCC2(CC(N3CCC4(CC3)OC(=O)N(CCOC)C4(C)C)C2)C1` (single isomer, unassigned) [4-41 Isomer 2]: the EC50 is above 20000 nM.

The experiment is the same for the next values; noted with them: CHO cells stably expressing human M3; Emax relative to ACh.
Turning to `CCOC(=O)N1CCC2(CC(N3CCC4(CC3)OC(=O)N(CC(C)C)C4(C)C)C2)C1` (single isomer, unassigned) [4-38 Isomer 2], the “M3 % Emax cf. ACh” value is recorded as “(1) %”.

Consider `CCCN1C(=O)OC2(CCN(C3CC4(CCN(C(=O)OCC)C4)C3)CC2)C1CC` (single isomer, unassigned) [4-23 Isomer 4], for which the “M3 % Emax cf. ACh” value was “(3) %”.

The experiment is the same for the next values; noted with them: CHO cells stably expressing human M3; phospho-ERK1/2.
As to `CCOC(=O)N1CCC2(CC(N3CCC4(CC3)OC(=O)N(CC(C)C)C4(C)C)C2)C1` (single isomer, unassigned) [4-38 Isomer 2], the “pEC50 M3” value is recorded as below 4.7.

Take `CCCN1C(=O)OC2(CCN(C3CC4(CCN(C(=O)OCC)C4)C3)CC2)C1CC` (single isomer, unassigned) [4-23 Isomer 4]: the “pEC50 M3” value is recorded as below 4.7.

The same experiment, now with this note: CHO, read-out: M3 % Emax cf. ACh, CHO cells stably expressing human M3; Emax relative to ACh.
For the compound `CCC1NC(=O)CC12CCN(C1CC3(CCN(C(=O)OC)C3)C1)CC2` (single isomer, unassigned) [3-4 Isomer 3], the maximal effect (Emax) stood at 24%.

As for `CCOC(=O)N1CCC2(CC(N3CCC4(CC3)OC(=O)N(CCOC)C4(C)C)C2)C1` (single isomer, unassigned) [4-41 Isomer 2], the maximal response (Emax) is 42%.

For another experiment, the target named is T1, human muscarinic M1 receptor (Homo sapiens, UniProt P11229).
T1 construct: expressed in transfected cells
T1 sequence (P11229 1-460): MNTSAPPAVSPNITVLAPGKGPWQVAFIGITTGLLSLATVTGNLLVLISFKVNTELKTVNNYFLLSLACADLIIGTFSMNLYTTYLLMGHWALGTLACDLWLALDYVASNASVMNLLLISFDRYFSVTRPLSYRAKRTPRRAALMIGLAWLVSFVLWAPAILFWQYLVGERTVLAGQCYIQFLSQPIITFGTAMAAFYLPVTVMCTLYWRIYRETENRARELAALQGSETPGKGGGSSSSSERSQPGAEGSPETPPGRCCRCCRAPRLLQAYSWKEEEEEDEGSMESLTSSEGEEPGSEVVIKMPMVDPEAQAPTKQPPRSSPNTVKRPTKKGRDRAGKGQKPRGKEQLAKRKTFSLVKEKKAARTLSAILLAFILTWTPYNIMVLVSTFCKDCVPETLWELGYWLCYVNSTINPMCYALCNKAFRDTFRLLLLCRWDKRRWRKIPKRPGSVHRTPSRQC
The experiment can be described thus: Alphascreen Surefire phospho-ERK1/2 functional assay, M1. The class given is cell-based. The following applies: CHO cells stably expressing human M1; Emax relative to ACh. In general terms: Alpha assays give light when donor and acceptor beads are brought close together.
Turning to `CCOC(=O)N1CCC2(CC(N3CCC4(CC3)OC(=O)N(CC(C)C)C4(C)C)C2)C1` (single isomer, unassigned) [4-38 Isomer 2], the “M1 % Emax cf. ACh” value was “(25) %”.

Consider `CCCN1C(=O)OC2(CCN(C3CC4(CCN(C(=O)OCC)C4)C3)CC2)C1CC` (single isomer, unassigned) [4-23 Isomer 4], for which the “M1 % Emax cf. ACh” value is given as “(96) %”.

For `CCC1NC(=O)CC12CCN(C1CC3(CCN(C(=O)OC)C3)C1)CC2` (single isomer, unassigned) [3-4 Isomer 3], the “M1 % Emax cf. ACh” value is recorded as “(101) %”.

The experiment is the same for the next values; noted with them: CHO cells stably expressing human M1; phospho-ERK1/2; read-out: pEC50 M1 (converted).
In the case of `CCOC(=O)N1CCC2(CC(N3CCC4(CC3)OC(=O)N(CC(C)C)C4(C)C)C2)C1` (single isomer, unassigned) [4-38 Isomer 2], the EC50 is above 20000 nM.

Take `CCCN1C(=O)OC2(CCN(C3CC4(CCN(C(=O)OCC)C4)C3)CC2)C1CC` (single isomer, unassigned) [4-23 Isomer 4]: the EC50 was 316 nM.

In the case of `CCC1NC(=O)CC12CCN(C1CC3(CCN(C(=O)OC)C3)C1)CC2` (single isomer, unassigned) [3-4 Isomer 3], the EC50 is 79.4 nM.

For the compound `CCOC(=O)N1CCC2(CC(N3CCC4(CC3)OC(=O)N(CCOC)C4(C)C)C2)C1` (single isomer, unassigned) [4-41 Isomer 2], the EC50 is above 20000 nM.

The experiment is the same for the next values; noted with them: CHO, read-out: M1 % Emax cf. ACh, CHO cells stably expressing human M1; Emax relative to ACh.
On to `CCOC(=O)N1CCC2(CC(N3CCC4(CC3)OC(=O)N(CCOC)C4(C)C)C2)C1` (single isomer, unassigned) [4-41 Isomer 2], for which the maximum response (Emax) turned out to be 8%.

The next experiment has as its target T2, human muscarinic M4 receptor (Homo sapiens, UniProt P08173).
T2 construct: expressed in transfected cells
T2 sequence (P08173 1-479): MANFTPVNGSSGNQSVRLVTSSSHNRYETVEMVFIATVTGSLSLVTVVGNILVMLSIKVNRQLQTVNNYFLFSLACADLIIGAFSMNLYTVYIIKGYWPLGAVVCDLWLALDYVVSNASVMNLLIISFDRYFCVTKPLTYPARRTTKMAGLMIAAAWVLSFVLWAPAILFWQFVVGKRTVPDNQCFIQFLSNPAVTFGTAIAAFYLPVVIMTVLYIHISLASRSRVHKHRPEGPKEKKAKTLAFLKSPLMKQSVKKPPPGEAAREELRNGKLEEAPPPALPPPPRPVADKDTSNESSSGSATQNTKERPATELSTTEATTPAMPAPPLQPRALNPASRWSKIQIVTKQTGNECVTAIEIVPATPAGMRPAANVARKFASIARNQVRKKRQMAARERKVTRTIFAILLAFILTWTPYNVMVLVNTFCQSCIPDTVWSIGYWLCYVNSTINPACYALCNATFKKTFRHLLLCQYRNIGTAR
The experiment can be described thus: Alphascreen Surefire phospho-ERK1/2 functional assay, M4. The class given is cell-based. The conditions noted are these: CHO cells stably expressing human M4; Emax relative to ACh.
`CCOC(=O)N1CCC2(CC(N3CCC4(CC3)OC(=O)N(CC(C)C)C4(C)C)C2)C1` (single isomer, unassigned) [4-38 Isomer 2]: the “M4 % Emax cf. ACh” value was “(95) %”.

With `CCCN1C(=O)OC2(CCN(C3CC4(CCN(C(=O)OCC)C4)C3)CC2)C1CC` (single isomer, unassigned) [4-23 Isomer 4], the “M4 % Emax cf. ACh” value was “(109) %”.

Consider `CCC1NC(=O)CC12CCN(C1CC3(CCN(C(=O)OC)C3)C1)CC2` (single isomer, unassigned) [3-4 Isomer 3], for which the “M4 % Emax cf. ACh” value is given as “(71) %”.

The same experiment, now with this note: CHO cells stably expressing human M4; phospho-ERK1/2; read-out: pEC50 M4 (converted).
Take `CCOC(=O)N1CCC2(CC(N3CCC4(CC3)OC(=O)N(CC(C)C)C4(C)C)C2)C1` (single isomer, unassigned) [4-38 Isomer 2]: the EC50 was 31.6 nM.

Consider `CCCN1C(=O)OC2(CCN(C3CC4(CCN(C(=O)OCC)C4)C3)CC2)C1CC` (single isomer, unassigned) [4-23 Isomer 4], for which the EC50 was 10 nM.

For the compound `CCC1NC(=O)CC12CCN(C1CC3(CCN(C(=O)OC)C3)C1)CC2` (single isomer, unassigned) [3-4 Isomer 3], the EC50 was 25.1 nM.

As for `CCOC(=O)N1CCC2(CC(N3CCC4(CC3)OC(=O)N(CCOC)C4(C)C)C2)C1` (single isomer, unassigned) [4-41 Isomer 2], the EC50 is 100 nM.

The same experiment, now with this note: CHO, read-out: M4 % Emax cf. ACh, CHO cells stably expressing human M4; Emax relative to ACh.
Turning to `CCOC(=O)N1CCC2(CC(N3CCC4(CC3)OC(=O)N(CCOC)C4(C)C)C2)C1` (single isomer, unassigned) [4-41 Isomer 2], the maximal response (Emax) worked out at 86%.

A further experiment has as its target T3, human muscarinic M2 receptor (Homo sapiens, UniProt P08172).
T3 sequence (P08172 1-466): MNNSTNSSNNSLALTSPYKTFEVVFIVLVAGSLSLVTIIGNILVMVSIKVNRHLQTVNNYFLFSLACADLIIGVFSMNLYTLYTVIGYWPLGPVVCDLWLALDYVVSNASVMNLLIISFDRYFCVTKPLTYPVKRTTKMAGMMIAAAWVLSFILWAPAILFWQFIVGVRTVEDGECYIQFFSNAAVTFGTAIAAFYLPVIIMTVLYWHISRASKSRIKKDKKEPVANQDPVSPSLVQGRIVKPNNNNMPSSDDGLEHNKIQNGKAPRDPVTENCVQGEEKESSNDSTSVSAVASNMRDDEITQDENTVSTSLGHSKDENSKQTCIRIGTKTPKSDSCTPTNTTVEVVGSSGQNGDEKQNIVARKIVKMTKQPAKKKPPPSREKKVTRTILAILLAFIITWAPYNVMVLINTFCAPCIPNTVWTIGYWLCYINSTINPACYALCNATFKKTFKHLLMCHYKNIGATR
Kind of experiment: Alphascreen Surefire phospho-ERK1/2 functional assay, M2. The following applies: CHO cells stably expressing human M2; Emax relative to ACh.
Description: CHO cells stably expressing the human muscarinic M1, M2, M3 or M4 receptor were plated (25K/well) onto 96-well tissue culture plates in MEM-alpha+10% dialysed FBS. Once adhered, cells were serum-starved overnight. Agonist stimulation was performed by the addition of 5 μL agonist to the cells for 5 min (37° C.). Media was removed and 50 μL of lysis buffer added. After 15 min, a 4 μL sample was transferred to 384-well plate and 7 μL of detection mixture added. Plates were incubated for 2 h with gentle agitation in the dark and then read on a PHERAstar plate reader.
pEC50 and Emax figures were calculated from the resulting data for each receptor subtype.
With `CCOC(=O)N1CCC2(CC(N3CCC4(CC3)OC(=O)N(CC(C)C)C4(C)C)C2)C1` (single isomer, unassigned) [4-38 Isomer 2], the “M2 % Emax cf. ACh” value is given as “(3) %”.

Turning to `CCCN1C(=O)OC2(CCN(C3CC4(CCN(C(=O)OCC)C4)C3)CC2)C1CC` (single isomer, unassigned) [4-23 Isomer 4], the “M2 % Emax cf. ACh” value is reported as “(8) %”.

For the compound `CCC1NC(=O)CC12CCN(C1CC3(CCN(C(=O)OC)C3)C1)CC2` (single isomer, unassigned) [3-4 Isomer 3], the “M2 % Emax cf. ACh” value is “(8) %”.

The experiment is the same for the next values; noted with them: CHO cells stably expressing human M2; phospho-ERK1/2.
For the compound `CCOC(=O)N1CCC2(CC(N3CCC4(CC3)OC(=O)N(CC(C)C)C4(C)C)C2)C1` (single isomer, unassigned) [4-38 Isomer 2], the “pEC50 M2” value is recorded as below 4.7.

As to `CCCN1C(=O)OC2(CCN(C3CC4(CCN(C(=O)OCC)C4)C3)CC2)C1CC` (single isomer, unassigned) [4-23 Isomer 4], the “pEC50 M2” value is reported as below 4.7.

Staying with this experiment, now noted: CHO, read-out: M2 % Emax cf. ACh, CHO cells stably expressing human M2; Emax relative to ACh.
Regarding `CCOC(=O)N1CCC2(CC(N3CCC4(CC3)OC(=O)N(CCOC)C4(C)C)C2)C1` (single isomer, unassigned) [4-41 Isomer 2], the Emax is 5%.

Still in this experiment, the particulars now being: pEC50 M2, CHO cells stably expressing human M2; phospho-ERK1/2.
`CCC1NC(=O)CC12CCN(C1CC3(CCN(C(=O)OC)C3)C1)CC2` (single isomer, unassigned) [3-4 Isomer 3] showed an EC50 above 20000 nM.

Compound `CCOC(=O)N1CCC2(CC(N3CCC4(CC3)OC(=O)N(CCOC)C4(C)C)C2)C1` (single isomer, unassigned) [4-41 Isomer 2] registered an EC50 above 20000 nM.
